In BigSolDB 2.1:

O=C1CCCC(=O)O1
solubility (mole fraction) (in 1,2-dichloroethane, 278.15 K): 0.448
solubility (mole fraction) (in 1,2-dichloroethane, 283.15 K): 0.555
solubility (mole fraction) (in 1,2-dichloroethane, 288.15 K): 0.631
solubility (mole fraction) (in 1,2-dichloroethane, 293.15 K): 0.7
solubility (mole fraction) (in 1,2-dichloroethane, 298.15 K): 0.773
solubility (mole fraction) (in 1,2-dichloroethane, 303.15 K): 0.807
solubility (mole fraction) (in 1,2-dichloroethane, 308.15 K): 0.866
solubility (mole fraction) (in 1,2-dichloroethane, 313.15 K): 0.922
solubility (mole fraction) (in DMAc, 278.15 K): 0.73
solubility (mole fraction) (in DMAc, 283.15 K): 0.789
solubility (mole fraction) (in DMAc, 288.15 K): 0.83
solubility (mole fraction) (in DMAc, 293.15 K): 0.852
solubility (mole fraction) (in DMAc, 298.15 K): 0.877
solubility (mole fraction) (in DMAc, 303.15 K): 0.905
solubility (mole fraction) (in DMAc, 308.15 K): 0.923
solubility (mole fraction) (in DMAc, 313.15 K): 0.935
solubility (mole fraction) (in DMF, 278.15 K): 0.549
solubility (mole fraction) (in DMF, 283.15 K): 0.594
solubility (mole fraction) (in DMF, 288.15 K): 0.663
solubility (mole fraction) (in DMF, 293.15 K): 0.705
solubility (mole fraction) (in DMF, 298.15 K): 0.74
solubility (mole fraction) (in DMF, 303.15 K): 0.795
solubility (mole fraction) (in DMF, 308.15 K): 0.822
solubility (mole fraction) (in DMF, 313.15 K): 0.87
solubility (mole fraction) (in acetone, 278.15 K): 0.444
solubility (mole fraction) (in acetone, 283.15 K): 0.524
solubility (mole fraction) (in acetone, 288.15 K): 0.623
solubility (mole fraction) (in acetone, 293.15 K): 0.676
solubility (mole fraction) (in acetone, 298.15 K): 0.76
solubility (mole fraction) (in acetone, 303.15 K): 0.815
solubility (mole fraction) (in acetone, 308.15 K): 0.884
solubility (mole fraction) (in acetone, 313.15 K): 0.918
solubility (mole fraction) (in acetonitrile, 278.15 K): 0.591
solubility (mole fraction) (in acetonitrile, 283.15 K): 0.648
solubility (mole fraction) (in acetonitrile, 288.15 K): 0.705
solubility (mole fraction) (in acetonitrile, 293.15 K): 0.764
solubility (mole fraction) (in acetonitrile, 298.15 K): 0.809
solubility (mole fraction) (in acetonitrile, 303.15 K): 0.844
solubility (mole fraction) (in acetonitrile, 308.15 K): 0.879
solubility (mole fraction) (in acetonitrile, 313.15 K): 0.918
solubility (mole fraction) (in dichloromethane, 278.15 K): 0.425
solubility (mole fraction) (in dichloromethane, 283.15 K): 0.51
solubility (mole fraction) (in dichloromethane, 288.15 K): 0.597
solubility (mole fraction) (in dichloromethane, 293.15 K): 0.641
solubility (mole fraction) (in dichloromethane, 298.15 K): 0.709
solubility (mole fraction) (in dichloromethane, 303.15 K): 0.78
solubility (mole fraction) (in dichloromethane, 308.15 K): 0.824
solubility (mole fraction) (in dichloromethane, 313.15 K): 0.896
solubility (mole fraction) (in ethyl acetate, 278.15 K): 0.107
solubility (mole fraction) (in ethyl acetate, 283.15 K): 0.156
solubility (mole fraction) (in ethyl acetate, 288.15 K): 0.206
solubility (mole fraction) (in ethyl acetate, 293.15 K): 0.273
solubility (mole fraction) (in ethyl acetate, 298.15 K): 0.383
solubility (mole fraction) (in ethyl acetate, 303.15 K): 0.506
solubility (mole fraction) (in ethyl acetate, 308.15 K): 0.618
solubility (mole fraction) (in ethyl acetate, 313.15 K): 0.75
solubility (mole fraction) (in methyl acetate, 278.15 K): 0.294
solubility (mole fraction) (in methyl acetate, 283.15 K): 0.384
solubility (mole fraction) (in methyl acetate, 288.15 K): 0.444
solubility (mole fraction) (in methyl acetate, 293.15 K): 0.551
solubility (mole fraction) (in methyl acetate, 298.15 K): 0.646
solubility (mole fraction) (in methyl acetate, 303.15 K): 0.7
solubility (mole fraction) (in methyl acetate, 308.15 K): 0.808
solubility (mole fraction) (in methyl acetate, 313.15 K): 0.874
solubility (mole fraction) (in n-butyl acetate, 278.15 K): 0.12
solubility (mole fraction) (in n-butyl acetate, 283.15 K): 0.145
solubility (mole fraction) (in n-butyl acetate, 288.15 K): 0.181
solubility (mole fraction) (in n-butyl acetate, 293.15 K): 0.246
solubility (mole fraction) (in n-butyl acetate, 298.15 K): 0.322
solubility (mole fraction) (in n-butyl acetate, 303.15 K): 0.451
solubility (mole fraction) (in n-butyl acetate, 308.15 K): 0.582
solubility (mole fraction) (in n-butyl acetate, 313.15 K): 0.736
solubility (mole fraction) (in n-propyl acetate, 278.15 K): 0.234
solubility (mole fraction) (in n-propyl acetate, 283.15 K): 0.301
solubility (mole fraction) (in n-propyl acetate, 288.15 K): 0.407
solubility (mole fraction) (in n-propyl acetate, 293.15 K): 0.505
solubility (mole fraction) (in n-propyl acetate, 298.15 K): 0.592
solubility (mole fraction) (in n-propyl acetate, 303.15 K): 0.712
solubility (mole fraction) (in n-propyl acetate, 308.15 K): 0.817
solubility (mole fraction) (in n-propyl acetate, 313.15 K): 0.908
